Series [1] in a line: Metabolite profiling in rat liver microsomes. Also noted: key: +: peak detected; ?: peak observed; ND: not detected. To be noted: 50 μM Compound 1, 2 hours. The series is classed as in vitro ADME. As for the experimental part: (§1) Preliminary identification of putative metabolites was conducted by comparing the retention time of observed metabolites with retention times obtained with chemically synthesized standards using the following HPLC-UV method:
(§2) Incubations with liver microsomes, liver cytosol or pig liver esterase were conducted in a final volume of 0.1 mL per incubation time point. Pooled microsomal protein (1.0 mg/mL) suspended in incubation buffer (0.1 M potassium phosphate, pH 7.4) was incubated for 2 hours at 37° C. with 50 μM Compound 1 from a stock solution in DMSO (final DMSO concentration was 0.1%); the microsomal reaction was initiated by the addition of an NADPH regenerating system (1.3 mM NADP^+, 3.3 mM glucose-6-phosphate, 0.4 U/ml glucose-6-phosphate dehydrogenase, and 3.3 mM MgCl2, final concentrations). Incubations with no NADPH or no protein served as controls. Reactions were terminated by the addition of 0.1 mL of stop solution (acetonitrile). The samples were vortex-mixed for 30 sec and then centrifuged at 10,000×g for 10 min. The supernatant was dried using a Labconco CentriVap concentrator and the dry residue reconstituted in water, transferred to an HPLC glass vial and analyzed by HPLC-UV method 2 (described above).
Results: Preliminary identification was accomplished by comparing LC elution of metabolites with that of available synthetic standards of putative metabolites (FIG. 2). […]
A general note: Liver microsomes are a subcellular fraction often used to study metabolism.

Series [2] in a line: Metabolite profiling in monkey liver microsomes. To be noted: 50 μM Compound 1, 2 hours. The series is classed as in vitro ADME. Also noted: key: +: peak detected; ?: peak observed; ND: not detected. The protocol: as §1, §2
Results: Preliminary identification was accomplished by comparing LC elution of metabolites with that of available synthetic standards of putative metabolites (FIG. 2). Metabolites U1, U2 and U3 were characterized based on the retention times.

The nature of series [3]: Incubation with monkey liver cytosol. The series is classed as in vitro ADME. To be noted: monkey cytosol 1 mg/mL, 2 hours, 10 μM. The protocol:
Pooled liver cytosol (1.0 mg protein/mL) suspended in incubation buffer (0.1 M potassium phosphate, pH 7.4) was incubated for 2 hours at 37° C. with 10 μM Compound 1 from a stock solution in DMSO (final DMSO concentration was 0.1%); reaction was initiated with the addition of test article. Incubations with no protein served as control. Reactions were terminated by the addition of 0.1 mL of stop solution (acetonitrile). The samples were vortex-mixed for 30 sec and then centrifuged at 10,000×g for 10 min. The supernatant was dried using a Labconco CentriVap concentrator and the dry residue reconstituted in water, transferred to an HPLC glass vial and analyzed by HPLC-UV method 2 (described above).
Metabolic stability of the proposed metabolites was conducted by incubating the chemically synthesized standards Compound 2, Compound 4 and Compound 3 as described above for Compound 1. When possible, formation of Compound 5 was verified by incubating samples with alkaline phosphatase (10 U) for 60 min at 37° C.

Series [4] is described as follows: Metabolite profile in rat feces. The format is in vivo, male Sprague-Dawley rats. As to conditions: for Percent of Dose, Feces 0-24 h: after [14C]Compound 1; for % AD / % HPLC (percent of HPLC peak area in the sample extract) / fecal component, % of the administered dose (% AD): 24 h collection; for % of the total fecal excretion / fecal component, % of the administered dose (% AD): rat feces. The protocol:
Pooled samples were prepared for the 24 h time interval from Groups 1C and 2C by combining a fixed percentage of the total weight of each individual animal sample homogenate for each group. The aliquots were pooled in a 15-mL polypropylene centrifuge tube. To the pooled sample (approximately 3 g each), 4.5 mL of MeOH-water (70:30) was added. The sample was vortexed for one minute, sonicated for 10 minutes, and then centrifuged at 5700×g for 10 minutes. The supernatant was transferred to a tube and the total volume of the supernatant was measured. The extraction procedure was repeated two additional times. The radioactivity in each extract was determined by LSC of duplicate aliquots (20 μL each) for extraction recovery. A portion (10% of total volume) of each extract was pooled for analysis by LSC and HPLC. The combined extracts were diluted (1:4) with aqueous mobile phase and analyzed using HPLC method 1 to obtain the metabolic profile. For comparing the in vitro with the in vivo metabolism data, these same fecal samples were analyzed by HPLC method 2.
Percent of the administered dose (% AD) for parent drug and each metabolite at each collection period=(% of the total radioactivity in the sample attributed to the metabolite)*(total radioactivity expressed as % of the administered dose, recovered during the corresponding collection period).
The samples were analyzed by HPLC with radiochemical detection. The distribution of metabolites as % of the administered dose was derived from these analyses. Both pooled fecal extracts were also analyzed by HPLC method 2. Metabolites R^1, R^2, R^3, R^4, R^5, R^6, R^7 and R^8 were characterized based on retention time.

The nature of series [5]: Excretion of administered dose in rat urine and feces. The format is in vivo, male Sprague-Dawley rats. As to conditions: IV; 24 h after [14C]Compound 1.
Where [6] appears, read: group 1C (IV) pooled fecal extract.
Setting [7] is: group 2C (PO) pooled fecal extract.

Values joined by “and” are separate entries in the source; they are usually repeats but may differ in a detail not shown here. Identical values can stand only once.

Six compounds from patent publication US20100003217A1, “Compounds and Pharmaceutical Compositions for the Treatment of Viral Infections” (priority 2008, published 2010) can be followed below.

Take `CC(C)(CO)C(=O)SCCOP(=O)(NCc1ccccc1)OC[C@H]1O[C@@H](n2cnc3c(=O)[nH]c(N)nc32)[C@](C)(O)[C@@H]1O` (mixture of isomers) [Compound 1, 3-hydroxy-2,2-dimethyl-thiopropionic acid S-(2-{[(2R,3R,4R,5R)-5-(2-amino-6-oxo-1,6-dihydro-purin-9-yl)-3,4-dihydroxy-4-methyl-tetrahydro-furan-2-ylmethoxy]-benzylamino-phosphoryloxy}-ethyl) ester]: the “In vitro metabolite profile in microsomes following incubation with Compound 1 (peak detection)” value (“In vitro metabolite profile” for short) in series [1] and in series [2] was “+” throughout. Moreover, the “Residual compound following incubation with liver cytosol” value (“Residual compound following incubation” below) in series [3] is given as 100%. In addition, the “Total excretion (% AD), feces” value in series [4] (IV (1C)) worked out at 19.7 % AD; in series [4] (PO (2C)), 65.6 % AD. Besides, the “Percent of Dose, Feces 0-24 h” value in series [4] (IV) is recorded as 19.7% of Dose; in series [4] (Oral), 65.6% of Dose. In addition, the entries for the “% AD” value in series [4] (setting [6]) and in series [4] (setting [7]) were 19.7 % AD and 65.6 % AD, respectively. The figures for the “% HPLC (percent of HPLC peak area in the sample extract)” value in series [4] (setting [6]) and in series [4] (setting [7]) were 50.6% and 71.9%, respectively. In addition, the “% of the total fecal excretion” value is on record as 50.6% in series [4] (IV dose 50 mg/kg) and 71.9% in series [4] (PO dose 100 mg/kg). The “fecal component, % of the administered dose (% AD)” value in series [4] (IV dose 50 mg/kg, 50 mg/kg) was 19.7 % AD and 20 % AD; in series [4] (PO dose 100 mg/kg, 100 mg/kg) it was 65.6 % AD and 66 % AD. Besides, in series [5], the “Percent of Dose, Total (urine, feces and liver)” value (“Percent of Dose, Total” below) is 45.9% of Dose.

For `CC(C)(CO)C(=O)SCCOP(N)(=O)OC[C@H]1O[C@@H](n2cnc3c(=O)[nH]c(N)nc32)[C@](C)(O)[C@@H]1O` (mixture of isomers) [Compound 3, {9-[(2R)2-C-methyl-β-D-ribo-furanosyl]-guanin}-5′-yl-O-(hydroxy-tert-butyl-S-acyl-2-thioethyl) phosphoramidate], the “Residual compound following incubation” value in series [3] came out at 99%.

For the compound `C[C@@]1(O)[C@H](O)[C@@H](CO)O[C@H]1n1cnc2c(=O)[nH]c(N)nc21` [2′-C-methyl guanosine, 9-(2-C-methyl-β-D-ribofuranosyl)guanine, reference compound], the “In vitro metabolite profile” value in series [1] and in series [2] was “+” each time. Also, the “Total excretion (% AD), feces” value in series [4] (IV (1C)) is reported as 16.0 % AD; in series [4] (PO (2C)), 25.6 % AD. For the same compound, the results for the “Percent of Dose, Feces 0-24 h” value in series [4] (IV) and in series [4] (Oral) were 16.0% of Dose and 25.6% of Dose, respectively. For the same compound, the “% AD” value in series [4] (setting [6]) came to 16.0 % AD; in series [4] (setting [7]), 25.6 % AD. The entries for the “% HPLC (percent of HPLC peak area in the sample extract)” value in series [4] (setting [6]) and in series [4] (setting [7]) were 41.0% and 28.1%, respectively. Moreover, the “% of the total fecal excretion” value in series [4] (IV dose 50 mg/kg) turned out to be 41.0%; in series [4] (PO dose 100 mg/kg), 28.1%. Also, the “fecal component, % of the administered dose (% AD)” value is 16 % AD in series [4] (IV dose 50 mg/kg, 50 mg/kg); 25.6 % AD and 26 % AD in series [4] (PO dose 100 mg/kg, 100 mg/kg). Moreover, in series [5], the “Percent of Dose, Total” value is given as 34.5% of Dose.

With `C[C@@]1(O)[C@H](O)[C@@H](COP(=O)(O)NCc2ccccc2)O[C@H]1n1cnc2c(=O)[nH]c(N)nc21` [Compound 2, [(2R)-2-methyl-β-D-ribofuranosyl]guanine-N-benzylaminyl-5′-monophosphate], in series [3], the “Residual compound following incubation” value stood at 0%. The “Percent of Dose, Total” value in series [5] is 0.76% of Dose.

`C[C@@]1(O)[C@H](O)[C@@H](COP(=O)(O)O)O[C@H]1n1cnc2c(=O)[nH]c(N)nc21` [Compound 5, [(2R)-2-methyl-β-D-ribofuranosyl]guanine 5′-monophosphate]: in series [2], the “In vitro metabolite profile” value is on record as “+”. Besides, the “Percent of Dose, Total” value in series [5] is 1.05% of Dose.

Consider `C[C@@]1(O)[C@H](O)[C@@H](COP(=O)(O)OP(=O)(O)O)O[C@H]1n1cnc2c(=O)[nH]c(N)nc21` [Compound 6, [(2R)-2-methyl-β-D-ribofuranosyl]guanine 5′-diphosphate], for which the “Percent of Dose, Total” value in series [5] is given as 0.29% of Dose.
